Assay results as given in US20030194450A1, “Method of producing a preparation containing active substances from cannabis” (priority 2002, published 2003).
Where “and” joins values, the source holds several entries; their conditions need not be identical. Equal values may be shown once.

Assay: Δ-9-tetrahydrocannabinol content in milk of a dairy cow fed hemp blossoms
Format: in vivo
Details: dairy cow fed 14 kg/day feed in two rations, 50 g ensiled hemp blossoms per ration; milk samples one week after initiation of feeding plan
Source text: A dairy cow with a medium milk production was fed over a time period of two weeks with a daily feed amount of 14 kg/day, divided up into two rations, 50 g of hemp blossoms having been added to each ration. The hemp blossoms used consisted of the upper part of pistillate hemp plants which were harvested in a way analogous to that employed for harvesting corn. The material was processed by a corn chaff cutter and underwent an ensilage step. The rest of the fodder was normal cattle feed (Total Mix Ratio, TMR) as is commonly provided in agriculture to cows for milk production. The content of Δ-9-tetrahydrocannabinol active substance in milk samples obtained one week after initiation of the feeding plan was determined to be 0.15 mg/l and 0.63 mg/l. The measurements were carried out in an accredited laboratory (Swiss testing STS 017, EN 45001, GMP).

Structure (SMILES): CCCCCc1cc(O)c2c(c1)OC(C)(C)[C@@H]1CCC(C)=C[C@@H]21 [Δ-9-tetrahydrocannabinol]
- content of Δ-9-tetrahydrocannabinol active substance in milk samples: 0.15 mg/L and 0.63 mg/L
